One assay concerns dengue virus. The experiment in a line: Initial screening of hit compounds for anti-dengue activity in tissue culture cells (Table S1). The class given is cell-based. Particulars: viral titer relative to vehicle, tissue culture cell lines (BHK-21 48 hpi, Fig. S1; Huh7, Fig. 2C, 3C, 4C). The procedure:
For each query molecule, the top 500 compound hits obtained from the ROCS algorithm, as ranked by the Tanimoto combo score (see Data Set S1 in the supplemental material), were manually inspected for similar chemical and structural features. They were further prioritized by factors such as a lack of known side effects, commercial availability, and the intellectual property considerations that would be needed for worldwide, inexpensive use. Fourteen candidates were tested for their effects on dengue virus growth and toxicity in BHK-21 and Huh7 cells (see Table S1 and Fig. S1 in the supplemental material).
Supplementary file : TABLE S1 Summary of hits for lead compounds ARDP0006 and ST-148 screened for anti-dengue activity in tissue culture cells. Hit compounds were tested for anti-dengue activity and cell toxicity in tissue culture cell lines. Antiviral activity is summarized as follows: −, not antiviral, with titer greater than 50% of vehicle; +, weakly antiviral, with titer between 20 and 50% of vehicle; ++, moderately antiviral, with titer between 5 and 20% of vehicle; +++, highly antiviral, with titer less than 5% of vehicle. Toxicity at these doses is represented as follows: −, nontoxic, with cell viability greater than 80% of vehicle; +, mild toxicity, with cell viability between 60 and 80% of vehicle; +++, high toxicity, with cell viability less than 60% of vehicle. Data summarized here are depicted graphically in Fig. S1 and Fig. 2C, 3C, and [4]C. The Tanimoto combo score of each hit during initial ROCS screening is indicated; higher Tanimoto combo scores are indicative of increased chemical similarity. Download Table S1, PDF file, 0.04 MB.
Supplementary file : FIG S1 Initial screening of eliminated hit compounds for anti-dengue activity in tissue culture cells. BHK-21 cells were pretreated with the compounds at the indicated concentrations for 30 min, infected with dengue virus at an MOI of 0.1 PFU/cell for 1 h, and then posttreated with compound. At 48 hpi, cellular supernatant was collected and titered by plaque assay (purple). Cell viability in uninfected cells in the presence of compounds for 48 h was measured by WST assay (gray). Both viral titer and cell viability are normalized to their relative DMSO vehicle control, N = 2. Download FIG S1, PDF file, 0.06 MB.

For another assay, the system named is dengue viral RNA. The experiment in a line: Intracellular viral RNA quantification by qRT-PCR in infected Huh7 cells. The conditions noted are these: 50 μM MK0608, control for inhibited vRNA replication. Type of assay: cell-based, dengue virus. The protocol: (A) Chemical structures and (B) ROCS overlay of ST-148 and niclosamide. […] Compound addition, viral growth, and cytotoxicity assays were performed as described in the legend to Fig. 2C. (D) Virucidal activity of compounds at the concentrations indicated was measured after 60-min incubation of drugs with virus-containing solutions at 37°C. Viral titer was quantified by plaque assay on BHK-21 cells. n = 3. Statistical significance was evaluated by one-way ANOVA with Sidak’s multiple-comparison test and indicated as follows: *, P < 0.05; **, P < 0.01; ****, P < 0.0001; ns, not significant. […] On the left, cells were pretreated for 2 h prior to infection, compounds were removed during a 1-h infection at an MOI of 0.5 PFU/cell and then readministered after removal of viral inoculum. On the right, cells were similarly infected and compounds were first introduced 4 h after starting the infection. […] (F) To test the effect of ST-148 and niclosamide on viral RNA replication, Huh7 cells were infected for 1 h at an MOI of 0.5 PFU/cell. […] Intracellular RNA was collected at the time points indicated and quantified by qRT-PCR. […] N = 4, two-way ANOVA with Dunnett’s multiple-comparison test. […] After 4 h of infection, 10 μM ST-148 or 1 μM niclosamide was added; extracellular virus was collected at 24 hpi and quantified by plaque assay.
Background: In qPCR the cycle at which signal appears reflects the starting amount.

Each structure is given as a SMILES string. “Also recorded” adds a separate entry of the source.

In the case of `CC1=NN(c2ccc(C)c(C)c2)C(=O)/C1=N\Nc1cccc(-c2cccc(C(=O)O)c2)c1O` [Eltrombopag], the Antiviral entry in the assay on dengue virus is listed as “− (not antiviral, with titer greater than 50% of vehicle)”. With `Cc1nccn1CC1CCc2c(c3ccccc3n2C)C1=O` (centres unmarked) [Ondansetron], the Antiviral result in the assay with dengue virus is “++ (moderately antiviral, with titer between 5 and 20% of vehicle)”.

On to `Nc1c2c(nc3ccccc13)CCCC2O` (centres unmarked) [Hydroxy tacrine], for which the Antiviral result in the assay with dengue virus is recorded as “− (not antiviral, with titer greater than 50% of vehicle)”. For `COc1cc2nc(N3CCN(C(=O)C4COc5ccccc5O4)CC3)nc(N)c2cc1OC` (centres unmarked) [Doxazosin], the Antiviral entry in the assay on dengue virus was “+ (weakly antiviral, with titer between 20 and 50% of vehicle)”. On the same count and under the same terms, the entry for `Cc1noc(NS(=O)(=O)c2ccc(N)cc2)c1C` [Sulfisoxazole] is “+ (weakly antiviral, with titer between 20 and 50% of vehicle)”; for `Cc1cnc(NC(=O)C2=C(O)c3ccccc3S(=O)(=O)N2C)s1` [Meloxicam] it is “− (not antiviral, with titer greater than 50% of vehicle)”. The same measure, in the same setting: next, `COc1c2occc2cc2ccc(=O)oc12` [Methoxsalen]: “− (not antiviral, with titer greater than 50% of vehicle)”. With `C[C@@]1(O)[C@H](O)[C@@H](CO)O[C@H]1n1ccc2c(N)ncnc21` [MK0608], in the assay on dengue viral RNA, the “Viral RNA abundance” value was “significantly reduced vRNA load; also recorded: strongly reduced viral RNA abundance”.

Consider `COc1ccc2[nH]c([S+]([O-])Cc3ncc(C)c(OC)c3C)nc2c1` (centres unmarked) [Omeprazole], for which, in the assay with dengue virus, the Antiviral entry was “− (not antiviral, with titer greater than 50% of vehicle)”. Turning to `Cc1cccn2c(=O)c(-c3nnn[nH]3)cnc12` [Pemirolast], in the assay on dengue virus, the Antiviral result was “− (not antiviral, with titer greater than 50% of vehicle)”. Same read-out and setting: the entry for `Cc1c(NC(=O)c2cccnc2)c(=O)n(-c2ccccc2)n1C` [Nifenazone] is “+ (weakly antiviral, with titer between 20 and 50% of vehicle)”.
